What was measured:
Type in all cases: in vitro ADME
Details in all cases: procedure of Example 14
[1] = molecular target: T1, CYP2D6 (Homo sapiens, UniProt P10635); assay: Cytochrome P450 inhibition, pooled human hepatic microsome (O-demethylation of dextromethorphan)
T1 construct: 0.2 mg protein/mL pooled human hepatic microsome enzyme; from tissue; host or cells: pooled human hepatic microsomes

[2] = molecular target: T2, CYP3A4 (Homo sapiens, UniProt P08684); assay: Cytochrome P450 inhibition, pooled human hepatic microsome
T2 construct: 0.2 mg protein/mL pooled human hepatic microsome enzyme; from tissue; host or cells: pooled human hepatic microsomes

[3] = molecular target: T3, CYP2C9 (Homo sapiens, UniProt P11712); assay: as above
T3 construct: 0.2 mg protein/mL pooled human hepatic microsome enzyme; from tissue; host or cells: pooled human hepatic microsomes

[4] = molecular target: T4, CYP1A2 (Homo sapiens, UniProt P05177); assay: as above
T4 sequence (P05177 1-516): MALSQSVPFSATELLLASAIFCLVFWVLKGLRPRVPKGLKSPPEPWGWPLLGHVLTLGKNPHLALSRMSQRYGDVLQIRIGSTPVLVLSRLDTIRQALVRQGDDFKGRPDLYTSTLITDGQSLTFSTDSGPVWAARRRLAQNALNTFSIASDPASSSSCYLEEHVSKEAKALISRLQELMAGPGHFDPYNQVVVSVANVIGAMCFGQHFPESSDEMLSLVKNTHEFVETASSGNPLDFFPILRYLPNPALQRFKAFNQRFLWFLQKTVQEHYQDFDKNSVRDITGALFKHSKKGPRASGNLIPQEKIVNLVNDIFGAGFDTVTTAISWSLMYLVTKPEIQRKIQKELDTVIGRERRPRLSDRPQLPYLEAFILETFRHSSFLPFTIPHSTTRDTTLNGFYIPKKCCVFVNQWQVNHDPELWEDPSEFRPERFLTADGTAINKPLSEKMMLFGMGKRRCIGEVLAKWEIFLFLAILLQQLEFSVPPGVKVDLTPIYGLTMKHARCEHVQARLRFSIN

T3 sequence (P11712 whole entry): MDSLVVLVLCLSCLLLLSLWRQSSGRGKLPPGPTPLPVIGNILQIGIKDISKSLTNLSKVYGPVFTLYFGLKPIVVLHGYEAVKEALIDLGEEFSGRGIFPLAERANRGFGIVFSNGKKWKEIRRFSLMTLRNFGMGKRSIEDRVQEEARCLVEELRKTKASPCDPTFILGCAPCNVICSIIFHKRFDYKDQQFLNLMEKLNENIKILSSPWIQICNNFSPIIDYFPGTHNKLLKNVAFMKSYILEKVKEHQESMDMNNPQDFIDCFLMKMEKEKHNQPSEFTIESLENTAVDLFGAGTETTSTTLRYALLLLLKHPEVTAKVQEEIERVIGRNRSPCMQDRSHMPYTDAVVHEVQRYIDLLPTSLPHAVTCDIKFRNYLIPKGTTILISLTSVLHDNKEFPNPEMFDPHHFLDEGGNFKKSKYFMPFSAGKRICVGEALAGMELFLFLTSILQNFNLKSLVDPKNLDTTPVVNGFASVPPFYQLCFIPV
T2 sequence (P08684 whole entry): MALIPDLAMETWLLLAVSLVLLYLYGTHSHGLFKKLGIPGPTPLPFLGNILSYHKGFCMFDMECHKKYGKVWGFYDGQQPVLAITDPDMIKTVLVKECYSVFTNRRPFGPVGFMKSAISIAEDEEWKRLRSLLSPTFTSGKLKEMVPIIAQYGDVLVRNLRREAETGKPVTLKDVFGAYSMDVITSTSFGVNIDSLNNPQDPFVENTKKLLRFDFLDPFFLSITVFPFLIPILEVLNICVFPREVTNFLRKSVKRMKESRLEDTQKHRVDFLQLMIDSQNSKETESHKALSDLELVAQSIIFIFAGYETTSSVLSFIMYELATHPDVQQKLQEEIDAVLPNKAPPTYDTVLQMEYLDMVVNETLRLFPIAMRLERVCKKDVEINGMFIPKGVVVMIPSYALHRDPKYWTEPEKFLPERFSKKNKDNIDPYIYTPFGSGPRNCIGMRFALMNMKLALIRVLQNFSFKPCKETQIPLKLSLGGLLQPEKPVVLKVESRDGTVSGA
T1 sequence (P10635 whole entry): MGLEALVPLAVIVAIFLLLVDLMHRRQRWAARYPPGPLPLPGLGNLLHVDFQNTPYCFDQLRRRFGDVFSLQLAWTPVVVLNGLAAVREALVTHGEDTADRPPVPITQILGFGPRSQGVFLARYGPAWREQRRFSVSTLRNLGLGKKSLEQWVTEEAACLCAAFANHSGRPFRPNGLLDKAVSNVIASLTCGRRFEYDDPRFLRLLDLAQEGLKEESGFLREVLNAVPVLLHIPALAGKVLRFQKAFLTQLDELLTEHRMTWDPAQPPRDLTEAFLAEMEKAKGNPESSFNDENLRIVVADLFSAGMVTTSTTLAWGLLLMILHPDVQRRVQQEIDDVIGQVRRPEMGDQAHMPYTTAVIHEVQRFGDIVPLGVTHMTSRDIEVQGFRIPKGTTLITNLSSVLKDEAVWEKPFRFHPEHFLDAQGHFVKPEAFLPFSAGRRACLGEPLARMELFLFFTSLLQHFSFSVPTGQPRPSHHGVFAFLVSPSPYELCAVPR

SMILES	IC50 [1] [µM]	IC50 [2] [µM]	IC50 [3] [µM]	IC50 [4] [µM]
O=C(O)Cc1cn([C@H]2C[C@H]3CCC[C@@H](C2)N3[C@H]2C[C@@H]3CCC[C@@H](C3)C2)c2ccccc12 [Compound 7]	14.6	> 20	> 20	> 20
c1ccc2c(c1)ccn2[C@H]1C[C@H]2CCC[C@@H](C1)N2[C@H]1C[C@@H]2CCC[C@@H](C2)C1 [Compound 11]	> 20	> 20	> 20	> 20
O=C(O)Cc1cn([C@H]2C[C@H]3CCC[C@@H](C2)N3C2CCCCCCCCC2)c2ccccc12 [Compound 23, 2-(1-((1R,3r,5S)-9-cyclodecyl-9-azabicyclo[3.3.1]nonan-3-yl)-1H-indol-3-yl)acetic acid]	1.15	> 20	> 20	> 20
